{"source": "patent US20070072813A1", "about": "“Methods for preventing and treating metabolic disorders and new pyrazole-O-glycoside derivatives” (priority 2005, published 2007)", "origin": "cited, not measured here", "settings": "metformin on its own, in the diabetic", "data": [{"smiles": "CN(C)C(=N)N=C(N)N", "note": "[metformin]", "values": [{"measurement": "average improvement in the HbA1c value", "result": "1.0-1.5%"}]}]}
